# What was measured:
# Human keratinocytes [1] = assay: Visual contraction of human keratinocytes by real time visual microscopy (cell area); type: cell-based
# Method: Human keratinocytes and Epilife culture media (Cascade Biologics, Portland, Oreg.) were cultured at 37° C. in a humidified atmospheres of 5% CO2/95% air. Glass Cover Slides (Applied Biophysics, Troy, N.Y.) were coated with 0.01 mg/ml Laminin V (Sigma Aldirch, St Louis, Mo.) in sterile Phosphate Buffered Saline (Gibco Life Sciences, San Diego, Calif.). Human keratinocytes were prepared at a density of 0.125×10^6 cells/mL in Epilife culture media. Human keratinocytes were plated at 3.75×10^4 cells/well on a 6 well plate containing Laminin coated coverslips and cultured at 37° C. in a humidified atmospheres of 5% CO2/95% O2 for 48 hrs. Individual coverslips were transferred to a open bath imaging chamber (Warner Instruments, Hamden, Conn.) mounted on a Leica inverted microscope (Leitz DM1L) with an attached CCD camera. Cells were perfused with Hank's Buffered Salt Solution (HBSS; Gibco Life Sciences, San Diego, Calif.) at flow rate of 1 ml/min using a peristaltic pump (Cole Parmer, Vernon Hills, Ill.). […] The pH of the HBSS without DMAE or THPED. (“Media Alone”) was also adjusted to pH 7.2-7.3. […] Cell area was determined using Scion Image software (Version 4.0.2), and reductions in cell area were reported as the ratio of cell area after treatment to cell area prior to treatment
# Human keratinocytes [2] = assay: Electric Cell-Substrate Impedance Sensing (ECIS) capacitance contraction of human keratinocytes; type: cell-based; settings: for Electrical Capacitance Contraction of Human Keratinocytes (AUC of capacitance, Mean ± Std Dev): integrated over 5 hrs, 40,000 Hz, pH 7.2-7.3; for contraction or shrinkage of keratinocyte cell area as measured by keratinocyte capacitance (in words): compared to media treatment alone
# From the text: Electrical changes due to the presence of a cell layer can be used to calculate cell morphological parameters including the barrier function of the cell layer (the spacing between the ventral side of the cell and the substratum) and the cell membrane capacitance (Giaever and Keese, Proceedings of National Academy of Sciences 88, 7896, 1991).
# Current flowing between a reference electrode, onto which cells or cell cultures may be attached, and a larger counter electrode using normal culture medium as the electrolyte can be used to detect changes in cell morphological parameters. In the absence of cells on the electrode, the current flows unrestrained from the surface of the electrodes. In the presence of cells attached and spread upon the electrode, the current must now flow in the spaces under and between the cells, as the cell membrane act as insulators.
# The electrical changes of living, viable cells can be sampled rapidly, in real time, over an extended period of time, and the measurements are the measurement is non-invasive. An example of this technology is the Electric Cell-substrate Impedance Sensing System (ECIS) available from Applied Biophysics (Troy, N.Y.). Electrical changes in keratinocyte morphological parameters can be used to identify novel compounds for anti-aging benefits.
# Human keratinocytes and Epilife culture media (Cascade Biologics, Portland, Oreg.) were cultured at 37° C. in a humidified atmospheres of 5% CO2/95% air. Electric Cell-substrate Impedance Sensing System (ECIS) electrode arrays (Applied Biophysics , Troy, N.Y.) were coated with 0.01 mg/ml Laminin V (Sigma Aldirch, St Louis, Mo.) in sterile Phosphate Buffered Saline (Gibco Life Sciences, San Diego, Calif.). Human keratinocytes were prepared at a density of 0.125×10^6 cells/mL in Epilife culture media. Human keratinocytes were plated at 5.0×10^4 cells/electrode well and cultured at 37° C. in a humidified atmospheres of 5% CO2/95% O2 for 24-48 hrs. Capacitance changes (in nanofarads, nF) of keratinocytes were measured using a Electric Cell-substrate Impedance Sensing System (ECIS) Model 1600R (Applied Biophysics, Troy, N.Y.) using the method of Wegener and co-workers (Wegener J, Keese C R, Giaever I, Exp Cell Res. 259:158-166, 2000) at a frequency of 40,000 Hz. Capacitance readings are inversely related to the contact area of a cell onto the ECIS electrode array, the greater the cell area contacting the electrode the smaller the capacitance readings (Wegener J, Keese C R, Giaever I, Exp Cell Res. 259:158-166, 2000). Conversely as a cell contracts or shrinks, the contact area of the cell onto the ECIS electrode array decreases, resulting in an increase in the capacitance readings. […] These calculations are based on the trapezoid theorem. The AUC of the media curve was subtracted from the compound treated group. A positive AUC difference indicates keratinocyte contraction, the greater the AUC difference the greater the amount of keratinocyte contraction. […] DMAE is a known skin-firming agent. The compounds were diluted into Hank's Buffered Salt Solution (HBSS; Gibco Life Sciences, San Diego, Calif.) and the pH of the solution adjusted to between pH 7.2-7.3. The pH of the HBSS without compounds (“Media Alone”) was also adjusted to pH 7.2-7.3.
# Human keratinocytes [3] = assay: Reversal of visual contraction of human keratinocytes after removal of DMAE; type: cell-based; settings: for Reversal of Visual Contraction of Human Keratinocytes (Mean ± Std Dev): 0.1% DMAE
# Method: Human keratinocytes and Epilife culture media (Cascade Biologics, Portland, Oreg.) were cultured at 37° C. in a humidified atmospheres of 5% CO2/95% air. Glass Cover Slides (Applied Biophysics, Troy, N.Y.) were coated with 0.01 mg/ml Laminin V (Sigma Aldirch, St Louis, Mo.) in sterile Phosphate Buffered Saline (Gibco Life Sciences, San Diego, Calif.). Human keratinocytes were prepared at a density of 0.125×10^6 cells/mL in Epilife culture media. Human keratinocytes were plated at 3.75×10^4 cells/well on a 6 well plate containing Laminin coated coverslips and cultured at 37° C. in a humidified atmospheres of 5% CO2/95% O2 for 48 hrs. Individual coverslips were transferred to a open bath imaging chamber (Warner Instruments, Hamden, Conn.) mounted on a Leica inverted microscope (Leitz DM1L) with an attached CCD camera. Cells were perfused with Hank's Buffered Salt Solution (HBSS; Gibco Life Sciences, San Diego, Calif.) at flow rate of 1 ml/min using a peristaltic pump (Cole Parmer, Vernon Hills, Ill.). […] The pH of the HBSS without DMAE or THPED. (“Media Alone”) was also adjusted to pH 7.2-7.3. […] Images were collected of a field of keratinocytes containing 10-20 cells at 0, 10 and 20 minutes of treatment using ImagePro software. Cell area was determined using Scion Image software (Version 4.0.2), and reductions in cell area were reported as the ratio of cell area after treatment to cell area prior to treatment
# In the following example, keratinocytes were prepared and plated on coverslips as described above.
# [4] = tested on: granular cells in the viable epidermis; assay: Confocal reflectance microscopy of upper inner arm skin, cell size decrease after product application; type: in vivo, human; settings: two microliters/cm^2, imaged over 20 minutes, eight volunteers, gel with 3% DMAE
# Method: A study was conducted using a VivaScope 1000 Confocal Reflectance Microscope from Lucid (Rochester, N.Y.) and a water immersion objective of NA 1.2-0.7 (60×). Sites on the upper inner arm were imaged immediately after product application (two microliters/cm^2 was applied) and every 2 minutes for an interval of 20 minutes. […] The confocal microscope was set up to acquire 16 frames from the top of the stratum corneum in steps of 3 micrometers, allowing observation of changes in cell size/morphology within a 48 micrometer depth region. As described by Rajadhyaksha et al., J. Invest. Dermatol. 113(3):293-303 (1999), the size of the cells varies (in diameter) with skin depth from 25-30 micromerters in the granular cells to 15-25 micrometers in spinous cells layers. In this study, cells were observed approximately 21 micrometers from the top of the stratum corneum, primarily granular cells, or at the top of the spinous cells. The exact same cells were compared in the initial maps and in the final maps in order to avoid any interference of cell size differences with the depth as described by Rajadhyaksha et al. After image acquisition, we used an enhancement routine developed in IDL® Software (Research System Inc., Boulder, Colo.) and the cells size area were measured using Image Pro Plus® (Media Cybernetics Inc., Silver Springs, Md.). […]
Compound,contraction or shrinkage of keratinocyte cell area as determined by keratinocyte surface area (in words) (Human keratinocytes [1]),"Visual Contraction of Human Keratinocytes (reduction in cell area, Mean ± Std Dev) (Human keratinocytes [1]; 0.1%, 2 Min)","Visual Contraction of Human Keratinocytes (reduction in cell area, Mean ± Std Dev) (Human keratinocytes [1]; 0.1%, 10 Min)","Visual Contraction of Human Keratinocytes (reduction in cell area, Mean ± Std Dev) (Human keratinocytes [1]; 0.1%, 20 Min)","Electrical Capacitance Contraction of Human Keratinocytes (AUC of capacitance, Mean ± Std Dev) (Human keratinocytes [2]; 0.01% V/V)","Electrical Capacitance Contraction of Human Keratinocytes (AUC of capacitance, Mean ± Std Dev) (Human keratinocytes [2]; 0.05% V/V)","Electrical Capacitance Contraction of Human Keratinocytes (AUC of capacitance, Mean ± Std Dev) (Human keratinocytes [2]; 0.1% V/V)",contraction or shrinkage of keratinocyte cell area as measured by keratinocyte capacitance (in words) (Human keratinocytes [2]),"Visual Contraction of Human Keratinocytes (reduction in cell area, Mean ± Std Dev) (Human keratinocytes [1]; 0.01%, 10 Min)","Visual Contraction of Human Keratinocytes (reduction in cell area, Mean ± Std Dev) (Human keratinocytes [1]; 0.01%, 20 Min)","Visual Contraction of Human Keratinocytes (reduction in cell area, Mean ± Std Dev) (Human keratinocytes [1]; 0.05%, 10 Min)","Visual Contraction of Human Keratinocytes (reduction in cell area, Mean ± Std Dev) (Human keratinocytes [1]; 0.05%, 20 Min)",Reversal of Visual Contraction of Human Keratinocytes (Mean ± Std Dev) (Human keratinocytes [3]; 20 Min Treatment with DMAE),Reversal of Visual Contraction of Human Keratinocytes (Mean ± Std Dev) (Human keratinocytes [3]; 30 Min After Removal of DMAE),Reversal of Visual Contraction of Human Keratinocytes (Mean ± Std Dev) (Human keratinocytes [3]; 60 Min After Removal of DMAE),reversibility of keratinocyte contraction (in words) (Human keratinocytes [3]; after removal of DMAE),Percentage of Decreases in Cell Size [4]
"CC(O)CN(CCN(CC(C)O)CC(C)O)CC(C)O (stereo not drawn) [THPED, N,N,N′,N′-Tetrakis(2-hydroxypropyl)ethylenediamine]",dose-dependent contraction or shrinkage,32.9% ± 11.3%,37.9% ± 10.7%,47.3% ± 12.7%,29.2 ± 3.2,35.1 ± 5.3,44.5 ± 9.1,dose-dependent contraction or shrinkage,–,–,–,–,–,–,–,–,–
"CN(C)CCO [DMAE, 2-(dimethylamino)ethanol]",dose-dependent contraction or shrinkage,–,23.61% ± 3.03%,33.83% ± 2.96%,22.82 ± 4.1,28.8 ± 5.6,36.1 ± 5.9,dose-dependent contraction or shrinkage,4.82% ± 0.68%,6.22% ± 0.95%,16.40% ± 2.58%,18.04% ± 3.09%,32.17% ± 2.65%,24.25% ± 3.23%,16.546% ± 3.89%,reversal of the DMAE-induced keratinocyte contraction,15%
